Measured values as given in US10941157B2, “Pesticidal compositions and uses thereof” (Gilead Apollo, LLC, priority 2015, dated 2021).
Converted amounts (≈) assume the structure as drawn. Where two headings read alike, the source gives them in different places.

Tests used:
Type in all cases: cell-based
[1] = tested on: Collectotrichum graminicola (Cg); assay: In vitro pathogen growth inhibition assay, Cg; conditions: 48 h
How it was run: (§1)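 Value reported is the compound concentration reaching ≥90% growth inhibition, from OD readings at 24 and 48 h after blank subtraction, confirmed visually. Inoculum was spores diluted in 17% V8 medium, except Rs, using 1.5 mm mycelial plugs in ¼ PDB; actual compound concentration corrected via OD600.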

[2] = tested on: Fusarium moniliforme (Fm); assay: In vitro pathogen growth inhibition assay, Fm; conditions: Fusarium verticillioides
How it was run: as §1

[3] = tested on: Diplodia maydis (Dm); assay: In vitro pathogen growth inhibition assay, Dm; conditions: Stenocarpella maydis, 48 h
How it was run: (§2)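 Spores of Dm, Fv and Pc were diluted in 17% V8 liquid medium; Rs used 1.5 mm mycelial plugs in ¼ PDB. Compounds from 2.5 mg/ml DMSO stocks were combined with inoculum, growth was read by OD600 at 24 and 48 h with blank subtraction, and the reported value is the concentration giving ≥90% inhibition.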

[4] = tested on: Fusarium virguliforme (Fv); assay: In vitro pathogen growth inhibition assay, Fv
How it was run: as §2

[5] = tested on: Botrtyis cinerea (Bc); assay: In vitro pathogen growth inhibition assay, Bc; conditions: 48 h
How it was run: as §1

[6] = tested on: Phytophthora capsici (Pc); assay: In vitro pathogen growth inhibition assay, Pc; conditions: 48 h
How it was run: as §2

[7] = tested on: Rhizoctonia solani (Rs); assay: In vitro pathogen growth inhibition assay, Rs (mycelial plugs); conditions: Rhizoctonia solani, 48 h
How it was run: as §2

[8] = tested on: Septoria tritici (St); assay: In vitro pathogen growth inhibition assay, St; conditions: Zymoseptoria tritici, 48 h
How it was run: as §1

[9] = ≥90% growth inhibition, 48 hours, vs 2% DMSO control, read-out: Compound Concentration (ppm) sufficient for ≥90% inhibition of Cg
[10] = ≥90% growth inhibition, 48 hours, vs 2% DMSO control, read-out: Compound Concentration (ppm) sufficient for ≥90% inhibition of Fm
[11] = ≥90% growth inhibition, 48 hours, vs 2% DMSO control, read-out: Compound Concentration (ppm) sufficient for ≥90% inhibition of Dm
[12] = ≥90% growth inhibition, 48 hours, vs 2% DMSO control, read-out: Compound Concentration (ppm) sufficient for ≥90% inhibition of Fv
[13] = ≥90% growth inhibition, 48 hours, vs 2% DMSO control, read-out: Compound Concentration (ppm) sufficient for ≥90% inhibition of Bc
[14] = ≥90% growth inhibition, 48 hours, vs 2% DMSO control, read-out: Compound Concentration (ppm) sufficient for ≥90% inhibition of Pc
[15] = ≥90% growth inhibition, mycelial plugs, 48 hours, vs 2% DMSO control, read-out: Compound Concentration (ppm) sufficient for ≥90% inhibition of Rs
[16] = ≥90% growth inhibition, 48 hours, vs 2% DMSO control, read-out: Compound Concentration (ppm) sufficient for ≥90% inhibition of St
[17] = concentration sufficient to ≥90% inhibition of growth, 48 hours vs 2% DMSO control, read-out: Compound Concentration (ppm) for ≥90% inhibition, Cg
[18] = concentration sufficient to ≥90% inhibition of growth, 48 hours vs 2% DMSO control, read-out: Compound Concentration (ppm) for ≥90% inhibition, Fm
[19] = concentration sufficient to ≥90% inhibition of growth, 48 hours vs 2% DMSO control, read-out: Compound Concentration (ppm) for ≥90% inhibition, Dm
[20] = concentration sufficient to ≥90% inhibition of growth, 48 hours vs 2% DMSO control, read-out: Compound Concentration (ppm) for ≥90% inhibition, Fv
[21] = concentration sufficient to ≥90% inhibition of growth, 48 hours vs 2% DMSO control, read-out: Compound Concentration (ppm) for ≥90% inhibition, Bc
[22] = concentration sufficient to ≥90% inhibition of growth, 48 hours vs 2% DMSO control, read-out: Compound Concentration (ppm) for ≥90% inhibition, Pc
[23] = concentration sufficient to ≥90% inhibition of growth, 48 hours vs 2% DMSO control, read-out: Compound Concentration (ppm) for ≥90% inhibition, Rs
[24] = concentration sufficient to ≥90% inhibition of growth, 48 hours vs 2% DMSO control, read-out: Compound Concentration (ppm) for ≥90% inhibition, St

Structure (SMILES)	IC90 [1, 9] [µg/mL]	IC90 [2, 10] [µg/mL]	IC90 [3, 11] [µg/mL]	IC90 [4, 12] [µg/mL]	IC90 [5, 13] [µg/mL]	IC90 [6, 14] [µg/mL]	IC90 [7, 15] [µg/mL]	IC90 [8, 16] [µg/mL]	IC90 [1, 17] [µg/mL]	IC90 [2, 18] [µg/mL]	IC90 [3, 19] [µg/mL]	IC90 [4, 20] [µg/mL]	IC90 [5, 21] [µg/mL]	IC90 [6, 22] [µg/mL]	IC90 [7, 23] [µg/mL]	IC90 [8, 24] [µg/mL]
COc1ccc(F)cc1[C@H](Cn1c(=O)n(C(C)(C)C(=O)NC(C)C)c(=O)c2c(C)c(CO)sc21)OCCC#N [Compound I-325]	> 50	2 (≈ 3.57 µM)	> 50	50 (≈ 89.2 µM)	50 (≈ 89.2 µM)	> 50	> 50	> 50	–	–	–	–	–	–	–	–
CCc1ccc(F)cc1CCn1c(=O)n(C(C)(C)C(=O)NC(C)C)c(=O)c2c(C)c(-n3nccn3)sc21 [Compound I-326]	2 (≈ 3.8 µM)	0.08 (≈ 0.152 µM)	2 (≈ 3.8 µM)	0.08 (≈ 0.152 µM)	2 (≈ 3.8 µM)	> 50	10 (≈ 19 µM)	> 50	–	–	–	–	–	–	–	–
Cc1c(-n2nccn2)sc2c1c(=O)n(C(C)(C)C(=O)NC(C)C)c(=O)n2CCc1cc(F)ccc1CCCC#N [Compound I-328]	10 (≈ 17.7 µM)	0.4 (≈ 0.707 µM)	2 (≈ 3.54 µM)	0.4 (≈ 0.707 µM)	2 (≈ 3.54 µM)	> 50	10 (≈ 17.7 µM)	> 50	–	–	–	–	–	–	–	–
COc1ccc(F)cc1CCn1c(=O)n(C(C)(C)C(=O)NC(C)C)c(=O)c2c(C)c(-n3cccn3)sc21 [Compound I-329]	50 (≈ 94.8 µM)	2 (≈ 3.79 µM)	50 (≈ 94.8 µM)	2 (≈ 3.79 µM)	10 (≈ 19 µM)	> 50	50 (≈ 94.8 µM)	> 50	–	–	–	–	–	–	–	–
Cc1c(-n2nccn2)sc2c1c(=O)n(C(C)(C)C(=O)NC(C)C)c(=O)n2CCc1cc(F)ccc1OC1CCOCC1 [Compound I-331]	10 (≈ 16.7 µM)	0.08 (≈ 0.134 µM)	> 50	0.08 (≈ 0.134 µM)	2 (≈ 3.34 µM)	> 50	10 (≈ 16.7 µM)	> 50	–	–	–	–	–	–	–	–
Cc1c(-n2nccn2)sc2c1c(=O)n(C(C)(C)C(=O)NC(C)C)c(=O)n2CCc1cc(F)ccc1OCc1ccccc1 [Compound I-332]	> 50	2 (≈ 3.31 µM)	> 50	2 (≈ 3.31 µM)	> 50	> 50	> 50	> 50	–	–	–	–	–	–	–	–
COc1ccccc1[C@H](Cn1c(=O)n([C@H](C)C(=O)NC(C)C)c(=O)c2c(C)c(-n3cccn3)sc21)OCCC#N [Compound I-333]	2 (≈ 3.54 µM)	0.4 (≈ 0.708 µM)	10 (≈ 17.7 µM)	10 (≈ 17.7 µM)	2 (≈ 3.54 µM)	50 (≈ 88.5 µM)	2 (≈ 3.54 µM)	> 50	–	–	–	–	–	–	–	–
CC(=O)Oc1ccc(F)cc1[C@@H](Cn1c(=O)n(C(C)(C)C(=O)NC(C)C)c(=O)c2c(C)c(-n3nccn3)sc21)OCCC#N [Compound I-334]	–	–	–	–	–	–	–	–	> 50	50 (≈ 79.9 µM)	> 50	> 50	> 50	> 50	> 50	> 50
CCOC(=O)c1ccc(F)cc1[C@H](Cn1c(=O)n(C(C)(C)C(=O)NC(C)C)c(=O)c2c(C)c(-n3nccn3)sc21)OCCC#N [Compound I-335]	50 (≈ 78.2 µM)	2 (≈ 3.13 µM)	50 (≈ 78.2 µM)	2 (≈ 3.13 µM)	10 (≈ 15.6 µM)	> 50	10 (≈ 15.6 µM)	> 50	–	–	–	–	–	–	–	–
Cc1c(-n2cccn2)sc2c1c(=O)n(C(C)(C)C(=O)NC(C)C)c(=O)n2CCc1cc(F)ccc1OCCC#N [Compound I-336]	–	–	–	–	–	–	–	–	> 50	10 (≈ 17.6 µM)	> 50	10 (≈ 17.6 µM)	50 (≈ 88.2 µM)	> 50	> 50	> 50
Cc1c(-n2cccn2)sc2c1c(=O)n(C(C)(C)C(=O)NC(C)C)c(=O)n2CCc1cc(F)ccc1OCCO [Compound I-337]	–	–	–	–	–	–	–	–	> 50	10 (≈ 17.9 µM)	> 50	10 (≈ 17.9 µM)	50 (≈ 89.7 µM)	> 50	10 (≈ 17.9 µM)	> 50
Cc1c(-n2nccn2)sc2c1c(=O)n(C(C)(C)C(=O)NC(C)C)c(=O)n2CCc1cc(F)ccc1OC(C)C [Compound I-338]	10 (≈ 18 µM)	0.08 (≈ 0.144 µM)	2 (≈ 3.59 µM)	0.08 (≈ 0.144 µM)	2 (≈ 3.59 µM)	> 50	10 (≈ 18 µM)	> 50	–	–	–	–	–	–	–	–
CCOC(=O)c1sc2c(c1C)c(=O)n(C(C)(C)C(=O)NC(C)C)c(=O)n2CCc1cc(F)ccc1OCCC#N [Compound I-339]	> 50	2 (≈ 3.49 µM)	> 50	2 (≈ 3.49 µM)	10 (≈ 17.5 µM)	> 50	50 (≈ 87.3 µM)	> 50	–	–	–	–	–	–	–	–
Cc1c(-n2nccn2)sc2c1c(=O)n(C(C)(C)C(=O)NC(C)C)c(=O)n2CCc1cc(F)ccc1OCCC#N [Compound I-340]	50 (≈ 88.1 µM)	2 (≈ 3.52 µM)	50 (≈ 88.1 µM)	2 (≈ 3.52 µM)	10 (≈ 17.6 µM)	> 50	50 (≈ 88.1 µM)	> 50	–	–	–	–	–	–	–	–
COc1ccc(F)cc1[C@@H](CCCC#N)Cn1c(=O)n(C(C)(C)C(=O)NC(C)C)c(=O)c2c(C)c(-n3ccnn3)sc21 [Compound I-341]	–	–	–	–	–	–	–	–	> 50	> 50	> 50	> 50	> 50	> 50	> 50	> 50
